Source: patent US12414978B2, “Tyrosine inhibitors with immunosuppressive activity in human neonatal keratinocyte progenitors” (ESCAPE THERAPEUTICS, INC., priority 2019, dated 2025)
Square brackets hold non-standard residues; d marks the D form. Ends that are not written are not given here. Peptide text beside a SMILES is read from it. * marks the point of attachment. Palmitoyl = CCCCCCCCCCCCCCCC(=O)*

Tests used:
fibroblasts [1] = test: Trypan blue cell viability after 7 days, fibroblasts; assay type: cell-based, human; details: 50 μM, relative to control (untreated cells)
Description: (§1) The effect of each of the decapeptides upon cell viability was also tested. In particular, cells were incubated with the decapeptide at various concentrations and then counted for viability relative to the control (untreated cells) using trypan blue. Cytotoxicity was measured according to the following formula: [1−(# of cells in control−# of live cells in test sample)/# of cells in control]×100 percent.

fibroblasts [2] = test: MTT cell proliferation, fibroblasts; assay type: cell-based, human
Description: (§2) Proliferation rates for three human cell lines (epidermal progenitors, melanoblasts, and fibroblasts) were determined using a TACS® MTT Cell Proliferation Kit. Cells were seeded at 2.5×10^4 per well in 96-well plates in a humidified atmosphere with 5 percent CO2 at 37 degrees Celsius. Twenty-four hours later, the decapeptides were added to the corresponding wells at varying concentrations and incubated for 72 hours. The remainder of the procedure was performed following the manufacturer's protocol.

[3] = test system: human epidermal progenitors; test: MTT cell proliferation, epidermal progenitors; assay type: cell-based
Description: Proliferation rates were determined using a TACS® MTT Cell Proliferation Kit (R&D systems, Minneapolis, MN). Cells were seeded at 2.5×10^4 per well in 96-well plates in a humidified atmosphere with 5 percent CO2 at 37 degrees Celsius. Twenty-four hours later, decapeptide-12 or oxyresveratrol were added to the corresponding wells at varying concentrations (0, 3, 10, 30, 100, 300, and 1000 micromolar), and cultures were then incubated for 72 hours. The remainder of the procedure was performed following the manufacturer's protocol.
as §2

melanoblasts [4] = test: Trypan blue cell viability after 7 days, melanoblasts; assay type: cell-based, human; details: relative to control (untreated cells)
Description: as §1

epidermal progenitors = test: Trypan blue cell viability after 7 days, epidermal progenitors; assay type: cell-based, human; details: relative to control (untreated cells)
Description: as §1

melanoblasts [5] = test: MTT cell proliferation, melanoblasts; assay type: cell-based, human
Description: as §2

[6] = test system: IL-2 activated human NK cell cytotoxic killing of human K562 cells; test: NK cytotoxic killing of K562 cells (CytoTox96); assay type: cell-based
Description: (§3) Cryopreserved human PBMCs were purchased from Astarte Biologics (Redmond, Washington, USA), activated with phytohemagglutinin (PHA), and proliferation assessed. Interleukin (IL)-2 activated human NK cell cytotoxic killing of human K562 cells was assessed using a CytoTox96 non-radioactive cytotoxicity assay kit (Promega). Protease inhibitor was added to the media to prevent degradation of decapeptide-12.
(§4) Three independent trials were performed for each experiment. Microsoft Excel (Seattle, Washington) was used to calculate means and standard errors and statistical significance was determined using unpaired analysis of variance or two-tailed student T-test. P values <0.05 were taken to be statistically significant.
The impact of decapeptide-12 on IL-2 primed NK-mediated cytotoxic killing of K562 cells, was also assessed.

PHA-stimulated PBMC [7] = test: PHA-stimulated PBMC proliferation; assay type: cell-based, human; details: PHA 72 hours
Description: as §3, §4
The effects of decapeptide-12 and oxyresveratrol on PBMC proliferation rates after exposure to PHA for 72 hours, were explored.

PHA-stimulated PBMC [8] = details: 0.1 millimolar; cited from earlier work

| Compound | fibroblast proliferation rate after 72 hours (fibroblasts [2]; 3 μM) | fibroblast proliferation rate after 72 hours (fibroblasts [2]; 10 μM) | fibroblast proliferation rate after 72 hours (fibroblasts [2]; 30 μM) | fibroblast proliferation rate after 72 hours (fibroblasts [2]; 50 μM) | fibroblast proliferation rate after 72 hours (fibroblasts [2]; 100 μM) | fibroblast proliferation rate after 72 hours (fibroblasts [2]; 300 μM) | fibroblast proliferation rate after 72 hours (fibroblasts [2]; 500 μM) | fibroblast proliferation rate after 72 hours (fibroblasts [2]; 1000 μM) | epidermal progenitor proliferation rate after 72 hours ([3]; 3 μM) | epidermal progenitor proliferation rate after 72 hours ([3]; 10 μM) | epidermal progenitor proliferation rate after 72 hours ([3]; 30 μM) | epidermal progenitor proliferation rate after 72 hours ([3]; 50 μM) | epidermal progenitor proliferation rate after 72 hours ([3]; 100 μM) | epidermal progenitor proliferation rate after 72 hours ([3]; 300 μM) | epidermal progenitor proliferation rate after 72 hours ([3]; 500 μM) | epidermal progenitor proliferation rate after 72 hours ([3]; 1000 μM) | melanoblast viability after 7 days (melanoblasts [4]; 10 μM) | epidermal progenitor viability after 7 days (epidermal progenitors; 10 μM) | melanoblast proliferation rate after 72 hours (melanoblasts [5]; 3 μM) | melanoblast proliferation rate after 72 hours (melanoblasts [5]; 10 μM) | other results |
| --- | --- | --- | --- | --- | --- | --- | --- | --- | --- | --- | --- | --- | --- | --- | --- | --- | --- | --- | --- | --- | --- |
| CCCCCCCCCCCCCCCC(=O)N[C@@H](Cc1ccc(O)cc1)C(=O)N[C@@H](CCCNC(=N)N)C(=O)N[C@@H](CO)C(=O)N[C@@H](CCCNC(=N)N)C(=O)N[C@@H](CCCCN)C(=O)N[C@@H](Cc1ccc(O)cc1)C(=O)N[C@@H](CO)C(=O)N[C@@H](CO)C(=O)N[C@@H](Cc1c[nH]c2ccccc12)C(=O)N[C@@H](Cc1ccc(O)cc1)C(N)=O [P4A, Palmitoyl-YRSRKYSSWY-amide] (Palmitoyl-YRSRKYSSWY-NH2) | 100% | 99 ± 1% | 98 ± 1% | 98 ± 1% | 97 ± 2% | 97 ± 2% | 96 ± 2% | 95 ± 2% | 99 ± 1% | 99 ± 1% | 98 ± 1% | 97 ± 1% | 97 ± 2% | 96 ± 2% | 96 ± 2% | 94 ± 2% | 99 ± 1% | 99 ± 1% | 100% | 100% | fibroblast viability after 7 days (fibroblasts [1]): 98 ± 1%; melanoblast viability after 7 days (melanoblasts [4]; 50 μM): 98 ± 1%; melanoblast viability after 7 days (melanoblasts [4]; 100 μM): 97 ± 2%; melanoblast proliferation rate after 72 hours (melanoblasts [5]; 30 μM): 99 ± 1%; melanoblast proliferation rate after 72 hours (melanoblasts [5]; 50 μM): 98 ± 1%; melanoblast proliferation rate after 72 hours (melanoblasts [5]; 100 μM): 97 ± 2%; melanoblast proliferation rate after 72 hours (melanoblasts [5]; 300 μM): 97 ± 2%; melanoblast proliferation rate after 72 hours (melanoblasts [5]; 500 μM): 96 ± 2%; melanoblast proliferation rate after 72 hours (melanoblasts [5]; 1000 μM): 95 ± 2% |
| CCCCCCCCCCCCCCCC(=O)N[C@@H](Cc1ccc(O)cc1)C(=O)N[C@@H](CCCNC(=N)N)C(=O)N[C@@H](CO)C(=O)N[C@@H](CCCNC(=N)N)C(=O)N[C@@H](CCCCN)C(=O)N[C@H](Cc1ccc(O)cc1)C(=O)N[C@@H](CO)C(=O)N[C@@H](CO)C(=O)N[C@@H](Cc1c[nH]c2ccccc12)C(=O)N[C@@H](Cc1ccc(O)cc1)C(N)=O [P4B, Palmitoyl-YRSRK[*Y]SSWY-amide] (Palmitoyl-YRSRK[dY]SSWY-NH2) | 100% | 99 ± 1% | 99 ± 1% | 99 ± 1% | 98 ± 2% | 97 ± 2% | 96 ± 2% | 96 ± 2% | 99 ± 1% | 99 ± 1% | 98 ± 1% | 98 ± 1% | 97 ± 1% | 97 ± 1% | 95 ± 2% | 94 ± 2% |  | 99 ± 1% | 100% | 100% | epidermal progenitor viability after 7 days (epidermal progenitors; 50 μM): 98 ± 1%; epidermal progenitor viability after 7 days (epidermal progenitors; 100 μM): 97 ± 1%; melanoblast proliferation rate after 72 hours (melanoblasts [5]; 30 μM): 99 ± 1%; melanoblast proliferation rate after 72 hours (melanoblasts [5]; 50 μM): 98 ± 1%; melanoblast proliferation rate after 72 hours (melanoblasts [5]; 100 μM): 97 ± 2%; melanoblast proliferation rate after 72 hours (melanoblasts [5]; 300 μM): 96 ± 2%; melanoblast proliferation rate after 72 hours (melanoblasts [5]; 500 μM): 95 ± 2%; melanoblast proliferation rate after 72 hours (melanoblasts [5]; 1000 μM): 94 ± 2% |
| Oc1cc(O)cc(/C=C/c2ccc(O)cc2O)c1 [oxyresveratrol] |  |  |  |  |  |  |  |  |  |  |  |  |  |  |  |  |  |  |  |  | reduction of NK killing of K562 cells ([6]; 0.1 millimolar, E:T ratio 10:1): 88.7±1.8%; reduction of NK killing of K562 cells ([6]; 0.1 millimolar, E:T ratio 30:1): 72.8±1.9%; reduction of NK killing of K562 cells ([6]; 0.3 millimolar, E:T ratio 10:1): 86.1±0.9%; reduction of NK killing of K562 cells ([6]; 0.3 millimolar, E:T ratio 30:1): 64.0±3.4%; reduction of PHA-stimulated PBMC proliferation (PHA-stimulated PBMC [7]; 0.1 millimolar): 35.3±1.8%; reduction of PHA-stimulated PBMC proliferation (PHA-stimulated PBMC [7]; 0.3 millimolar): progressively less inhibition; reduction of PHA-stimulated PBMC proliferation (PHA-stimulated PBMC [7]; 1 millimolar): progressively less inhibition; reduction of PHA-stimulated PBMC proliferation (PHA-stimulated PBMC [7]; 3 millimolar): 14.7±3.4%; reduction in proliferation ([3]; 1 millimolar (1000 micromolar), 72 hours, epidermal progenitors): 12±2% |
| Oc1ccc(C=Cc2cc(O)cc(O)c2)cc1 [resveratrol] |  |  |  |  |  |  |  |  |  |  |  |  |  |  |  |  |  |  |  |  | inhibition of PHA-induced proliferation (PHA-stimulated PBMC [8]): inhibits |
| Ac-YRSRKYSSWY-NH2 [P4C, Acetyl-YRSRKYSSWY-amide] | 100% | 99 ± 1% | 99 ± 1% | 99 ± 1% | 98 ± 2% | 97 ± 2% | 96 ± 2% | 96 ± 2% | 99 ± 1% | 99 ± 1% | 98 ± 1% | 98 ± 1% | 97 ± 1% | 97 ± 1% | 96 ± 2% | 96 ± 2% | 99 ± 1% | 99 ± 1% | 100% | 100% | melanoblast viability after 7 days (melanoblasts [4]; 100 μM): 97 ± 2%; melanoblast viability after 7 days (melanoblasts [4]; 300 μM): 96 ± 3%; epidermal progenitor viability after 7 days (epidermal progenitors; 30 μM): 98 ± 1%; epidermal progenitor viability after 7 days (epidermal progenitors; 1000 μM): 94 ± 3%; melanoblast proliferation rate after 72 hours (melanoblasts [5]; 30 μM): 99 ± 1%; melanoblast proliferation rate after 72 hours (melanoblasts [5]; 50 μM): 98 ± 1%; melanoblast proliferation rate after 72 hours (melanoblasts [5]; 100 μM): 97 ± 2%; melanoblast proliferation rate after 72 hours (melanoblasts [5]; 300 μM): 96 ± 3%; melanoblast proliferation rate after 72 hours (melanoblasts [5]; 500 μM): 95 ± 2%; melanoblast proliferation rate after 72 hours (melanoblasts [5]; 1000 μM): 95 ± 2% |
| YRSRKYSSWY [P4, YRSRKYSSWY] |  |  |  |  |  |  |  |  |  |  |  |  |  |  |  |  | 99 ± 1% | 99 ± 1% |  |  | melanoblast viability after 7 days (melanoblasts [4]; 50 μM): 98 ± 1%; melanoblast viability after 7 days (melanoblasts [4]; 1000 μM): 94 ± 2% |
